Patent US9145391B2, “Bipyridylaminopyridines as Syk inhibitors” (Merck Sharp & Dohme Corp., priority 2011, dated 2015)

The compounds below were run against recombinant human GST-Syk (Homo sapiens (Human), UniProt P43405) (assay: Homogeneous Time-Resolved Fluorescence (HTRF) assay for the recombinant human Syk enzyme). Conditions: recombinant human GST-Syk 5 pM, ATP 25 μM, read-out: rhSyk IC50.
Format: biochemical
How it was run: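 Recombinant GST-hSyk fusion protein kinase activity was read by HTRF. Reactions were started with biotinylated substrate peptide at 250 nM final, Mg 5 mM final and ATP 25 μM final. Potency derived from inhibition of substrate phosphorylation.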

| SMILES | IC50 [nM] |
| --- | --- |
| Cc1cc(Nc2cc(C(F)(F)F)ccn2)nc(-c2ccc(NC3CCN(C(=O)Cc4ccc5ccccc5c4)CC3)nc2)c1 [Example 4-41] | 58 |
| Cc1cc(Nc2cc(C(F)(F)F)ccn2)nc(-c2ccc(C3(O)CCCc4cc(C(=O)O)ccc43)nc2)c1 (centres unmarked) [Example 1-22] | 1 |
| CCCCCCCCOC(=O)[C@H]1CC[C@H](C(C)(O)c2ccc(-c3cc(C)cc(Nc4cc(C(F)F)ccn4)n3)cn2)CC1 (single isomer, unassigned) [Example 19-11, octyl trans-4-[(1R or 1S)-1-(6-{[4-(difluoromethyl)pyridin-2-yl]amino}-4-methyl-2,3′-bipyridin-6′-yl)-1-hydroxyethyl] cyclohexanecarboxylate] | > 10000 |
| Cc1cc(Nc2cc(C(F)(F)F)ccn2)nc(-c2ccc(C3(O)CCNCC3)nc2)c1 [Example 5-3] | 9 |
| Cc1cc(Nc2cc(C(F)(F)F)ccn2)nc(-c2ccc(NC3CCC(C(=O)O)CC3)nc2)c1 (centres unmarked) [Example 2-25] | 7 |
| Cc1cc(Nc2cc(C(F)(F)F)ccn2)nc(-c2ccc(N3CCC4CCC(C(=O)O)CC4C3)nc2)c1 (centres unmarked) [Example 2-29] | 6 |
| Cc1cc(Nc2cc(C(F)(F)F)ccn2)nc(-c2ccc(NC3CCN(C(=O)c4cccc(O)c4)CC3)nc2)c1 [Example 4-101] | 8 |
| Cc1cc(Nc2cc(C(F)(F)F)ccn2)nc(-c2ccc(N3CCOCC3)nc2)c1 [Example 2-30] | 14 |
| Cc1cc(Nc2cc(C(F)(F)F)ccn2)nc(-c2ccc(NC3CCN(C(=O)Cc4ccc5ccn(C)c5c4)CC3)nc2)c1 [Example 4-2] | 1 |
| Cc1cc(Nc2cc(C(F)(F)F)ccn2)nc(-c2ccc(C3(O)CCN(C(=O)c4ccc5cc[nH]c5c4)CC3)nc2)c1 [Example 9-2] | 13 |
| Cc1cc(Nc2cc(C(F)(F)F)ccn2)nc(-c2ccc(NC3CCN(C(=O)c4ccc5nc(C)sc5c4)CC3)nc2)c1 [Example 4-78] | 4 |
| Cc1cc(Nc2cc(C(F)(F)F)ccn2)nc(-c2ccc(C3(O)CCCc4cc(C(=O)O)ccc43)nc2)c1 (centres unmarked) [Example 1-21] | 2 |
| Cc1cc(Nc2cc(C(F)(F)F)ccn2)nc(-c2ccc(N3CCCC(N)C3)nc2)c1 (centres unmarked) [Example 5-1] | 2 |
| Cc1cc(Nc2cc(C(F)F)ccn2)nc(-c2ccc(C(C)(O)[C@H]3CC[C@H](C(=O)OCC(C)C)CC3)nc2)c1 (single isomer, unassigned) [Example 19-6, 2-methylpropyl trans-4-[(1R or 1S)-1-(6-{[4-(difluoromethyl)pyridin-2-yl]amino}-4-methyl-2,3′-bipyridin-6′-yl)-1-hydroxyethyl] cyclohexanecarboxylate] | 74 |
| Cc1cc(Nc2cc(C(F)(F)F)ccn2)nc(-c2ccc(NC3CCN(C(=O)c4cccc(Cn5cccn5)c4)CC3)nc2)c1 [Example 4-29] | 7 |
| Cc1cc(Nc2cc(C(F)F)ccn2)nc(-c2ccc(C(C)(O)[C@H]3CC[C@H](C(=O)OCCO)CC3)nc2)c1 (single isomer, unassigned) [Example 18, 2-Hydroxyethyl trans-4-[(1R or 1S)-1-(6-{[4-(difluoromethyl)pyridin-2-yl]amino}-4-methyl-2,3′-bipyridin-6′-yl)-1-hydroxyethyl]cyclohexanecarboxylate] | 3.4 |

| SMILES | IC50 [nM] |
| --- | --- |
| Cc1cc(Nc2cc(C(F)(F)F)ccn2)nc(-c2ccc(NC3CCN(C(=O)c4cnc5ccc(F)cc5c4)CC3)nc2)c1 [Example 4, (6-Fluoroquinolin-3-yl)(4-(4-methyl-6-(4-(trifluoromethyl)pyridin-2-ylamino)-2,3′-bipyridin-6′-ylamino)piperidin-1-yl)methanone] | 8 |
| Cc1cc(Nc2cc(C(F)(F)F)ccn2)nc(-c2ccc(C[C@H]3CC[C@@H](C(=O)O)CC3)nc2)c1 [Example 10 cis isomer, cis-4-[(4-methyl-6-{[4-(trifluoromethyl)pyridin-2-yl]amino}-2,3′-bipyridin-6′-yl)methyl]cyclohexanecarboxylic acid] | 1 |
| Cc1cc(Nc2cc(C(F)(F)F)ccn2)nc(-c2ccc(C3(O)CCN(C(=O)OC(C)(C)C)CC3)nc2)c1 [Example 1-5] | 406 |
| Cc1cc(Nc2cc(C(F)(F)F)ccn2)nc(-c2ccc(NC3CCN(C(=O)Cc4ccc5[nH]c(C)c(C)c5c4)CC3)nc2)c1 [Example 4-34] | 8 |
| Cc1cc(Nc2cc(C(F)(F)F)ccn2)nc(-c2ccc(NC3CCN(C(=O)c4ccc5c(c4)C(=O)NC5)CC3)nc2)c1 [Example 4-4] | 1 |
| CC(=O)N[C@H]1CCN(c2ccc(-c3cc(C)cc(Nc4cc(C(F)(F)F)ccn4)n3)cn2)C1 [Example 6, N-[(3S)-1-(4-methyl-6-{[4-(trifluoromethyl)pyridin-2-yl]amino}-2,3′-bipyridin-6′-yl)pyrrolidin-3-yl]acetamide] | 17 |
| Cc1cc(Nc2cc(C(F)(F)F)ccn2)nc(-c2ccc(NC3CCN(C(=O)c4ccccc4N(C)C)CC3)nc2)c1 [Example 4-38] | 40 |
| Cc1cc(Nc2cc(C(F)(F)F)ccn2)nc(-c2ccc(N3CCCC(C(=O)N4CCCC(C(=O)O)C4)C3)nc2)c1 (centres unmarked) [Example 2-28] | 3 |
| Cc1cc(Nc2cc(C(F)(F)F)ccn2)nc(-c2ccc(NC3CCN(C(=O)c4ccc5ccccc5c4)CC3)nc2)c1 [Example 4-49] | 19 |
| Cc1cc(Nc2cc(C(F)F)ccn2)nc(-c2ccc(C(C)(F)[C@H]3CC[C@H](C(=O)O)CC3)nc2)c1 (single isomer, unassigned) [Example 13, trans-4-(1R or 1S)-(6-(4-(Difluoromethyl)pyridin-2-ylamino)-4-methyl-2,3′-bipyridin-6′-yl)-1-fluoroethyl)cyclohexanecarboxylic acid] | < 0.5 |
| Cc1cc(Nc2cc(C(F)F)ccn2)nc(-c2ccc(C(C)(O)C3CCC(C(=O)O)CC3)nc2)c1 (single isomer, unassigned) [Example 12-1, trans-4-[(1R or 1S)-(6-{[4-(difluoromethyl)pyridin-2-yl]amino}-4-methyl-2,3′-bipyridin-6′-yl)-1-hydroxyethyl]cyclohexanecarboxylic acid] | 1 |
| Cc1cc(Nc2cc(C(F)F)ccn2)nc(-c2ccc(C(C)(O)[C@H]3CC[C@H](C(=O)OC(C)OC(=O)OC4CCCCC4)CC3)nc2)c1 (single isomer, unassigned) [Example 20-10, 1-{[(cyclohexyloxy)carbonyl]oxy}ethyl trans-4-[(1R or 1S)-1-(6-{[4-(difluoromethyl)pyridin-2-yl]amino}-4-methyl-2,3′-bipyridin-6′-yl)-1-hydroxyethyl] cyclohexanecarboxylate] | 190 |
| Cc1cc(Nc2cc(C(F)(F)F)ccn2)nc(-c2ccc(NC3CCN(C(=O)c4cccc5c4Cc4ccccc4-5)CC3)nc2)c1 [Example 4-54] | 149 |
| Cc1cc(Nc2cc(C(F)(F)F)ccn2)nc(-c2ccc(NC3CCNC3=O)nc2)c1 (centres unmarked) [Example 2-16] | 6 |
| Cc1cc(Nc2cc(C(F)(F)F)ccn2)nc(-c2ccc(C3(O)CCC(C(=O)O)CC3)nc2)c1 (centres unmarked) [Example 1-19] | 3 |
| CCOC(=O)OC(C)OC(=O)[C@H]1CC[C@H](C(C)(O)c2ccc(-c3cc(C)cc(Nc4cc(C(F)F)ccn4)n3)cn2)CC1 (single isomer, unassigned) [Example 20-6, 1-[(ethoxycarbonyl)oxy]ethyl trans-4-[(1R or 1S)-1-(6-{[4-(difluoromethyl)pyridin-2-yl]amino}-4-methyl-2,3′-bipyridin-6′-yl)-1-hydroxyethyl] cyclohexanecarboxylate] | 21 |
